Test results reported in article PMC6843571, “Effects of Single Nucleotide Polymorphism Ala270Ser (rs316019) on the Function and Regulation of hOCT2” (Biomolecules, 2019).
Substitutions are numbered along the chain they refer to. “And” between values parts separate entries of the source, which are not always exact repeats. Equal values may be shown once.

Columns and labels:
hOCT2 WT [1] = target: T1, hOCT2 WT (Homo sapiens, UniProt O15244); assay: ASP+ uptake saturation experiments (microfluorimetry), hOCT2 WT; format: cell-based; conditions: hOCT2 WT in stably transfected HEK cells; specific uptake (minus uptake with 1 mM TPA^+); 37 °C, pH 7.4
T1 construct: expressed in transfected cells
T1 sequence (O15244 1-555 S270A): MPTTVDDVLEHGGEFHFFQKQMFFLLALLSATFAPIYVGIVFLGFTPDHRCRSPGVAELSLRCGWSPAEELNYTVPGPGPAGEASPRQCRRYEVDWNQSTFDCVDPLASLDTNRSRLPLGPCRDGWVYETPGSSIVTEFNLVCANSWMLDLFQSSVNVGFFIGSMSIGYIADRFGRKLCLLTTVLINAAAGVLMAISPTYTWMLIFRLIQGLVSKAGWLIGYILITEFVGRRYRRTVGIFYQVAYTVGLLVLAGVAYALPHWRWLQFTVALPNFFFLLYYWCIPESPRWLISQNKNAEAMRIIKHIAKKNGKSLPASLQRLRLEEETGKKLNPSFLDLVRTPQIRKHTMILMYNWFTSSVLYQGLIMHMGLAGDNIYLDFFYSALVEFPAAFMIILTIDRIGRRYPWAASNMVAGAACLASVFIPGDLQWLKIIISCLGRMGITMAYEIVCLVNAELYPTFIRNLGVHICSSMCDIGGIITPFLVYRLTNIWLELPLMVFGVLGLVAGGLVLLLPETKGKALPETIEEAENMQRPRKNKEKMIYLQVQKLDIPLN
Method: (§1) Measurement of hOCT2 function in HEK293 cells was performed using microfluorimetry with the fluorescent organic cation 4-(4-(dimethylamino)styryl)-N-methylpyridinium (ASP^+) as the substrate, as described previously in detail. As shown in previous work, this method allows a real-time measurement of the transporter function. The initial rate of ASP^+ uptake was calculated, as it reflects the activity of the transporter.
(§2) Briefly, ASP^+ cellular fluorescence was measured in a microtiterplate reader (Tecan infinite m200; Tecan, Crailsheim, Germany) at 37 °C using an excitation wavelength of 450 nm and an emission of 590 nm. Before fluorescence measurements, cells confluently grown in 96-well plates were washed in ringer-like solution (in mmol/L: 145 NaCl, 1.6 K2HPO4, 0.4 KH2PO4, 5 D-glucose, 1 MgCl2, 1.3 calcium gluconate, pH 7.4). Cell fluorescence was measured before and after ASP^+ addition to the cells. The kinetic characteristics of hOCT WT and hOCT2 Ala270Ser were investigated performing saturation experiments with increasing ASP^+ concentrations. Non-hOCT2-mediated ASP^+ uptake was evaluated in the presence of a huge amount (1 mM) of tetrapentylammonium (TPA^+) and subtracted from the total ASP^+ uptake in order to evaluate the ASP^+ uptake mediated specifically by hOCT2, as shown already in References. […]

hOCT2 WT [2] = target: T2, hOCT2 WT (Homo sapiens, UniProt O15244, S270A); assay: as above; format: cell-based; conditions: hOCT2 WT in stably transfected HEK cells; specific uptake
T2 construct: expressed in transfected cells
T2 sequence (O15244 1-555 S270A): T1 sequence (O15244 1-555 S270A)
Method: as §1, §2

hOCT2 Ala270Ser [3] = target: T3, hOCT2 Ala270Ser (Homo sapiens, UniProt O15244); assay: ASP+ uptake saturation experiments (microfluorimetry), hOCT2 Ala270Ser; format: cell-based; conditions: hOCT2 Ala270Ser in stably transfected HEK cells
T3 construct: expressed in transfected cells
T3 sequence (O15244 1-555): T1 sequence (O15244 1-555 S270A) with A270S
Method: as §1, §2

hOCT2 Ala270Ser [4] = target: T3, hOCT2 Ala270Ser; assay: Inhibition of ASP+ uptake by competitors, hOCT2 Ala270Ser; format: cell-based; conditions: 1 µM ASP^+; for IC50: HEK293 hOCT2 Ala270Ser cells, 37 °C, pH 7.4, read-out: hOCT2 Ala270Ser IC50 (apparent affinity, inhibition of ASP^+ uptake); for hOCT2 Ala270Ser logIC50 ± SEM: log of IC50, in parenthesis in Table 1
hOCT2 WT [5] = target: T1, hOCT2 WT; assay: Inhibition of ASP+ uptake by competitors, hOCT2 WT; format: cell-based; conditions: 1 µM ASP^+; HEK293 hOCT2 WT cells; 37 °C, pH 7.4; read-out: hOCT2 WT IC50 (apparent affinity, inhibition of ASP^+ uptake)
hOCT2 WT [6] = target: T2, hOCT2 WT; assay: Inhibition of ASP+ uptake by competitors, hOCT2 WT; format: cell-based; conditions: 1 µM ASP^+, hOCT2 WT cells; for hOCT2 WT logIC50 ± SEM: log of IC50, in parenthesis in Table 1
hOCT2 Ala270Ser cells = assay: Cytoviability (MTT) assay, hOCT2 Ala270Ser cells; format: cell-based, human
Method: (§3) The cytotoxicity of cisplatin was evaluated using a modified 3-(4,5-dimethylthiazol-2-yl)-2,5-diphenyltetrazoliumbromid (MTT) assay. The HEK293 cells grown for 24 hours in 96-well plates were incubated for 10 min at 37 °C with different concentrations of cisplatin (Calbiochem, Merck Chemicals GmbH, Darmstadt, Germany) dissolved in a ringer-like solution. The cisplatin solution was then removed, and the cells were grown in fresh medium for 48 hours. Afterwards, the cells were incubated with 10 µL MTT (Sigma, Steinheim, Germany) solution containing 5 mg/mL of the dye for three hours at 37 °C. Then, MTT was removed, and the cells were lysed with a solution containing 10% (w/v) sodium dodecyl sulfate and 40% (v/v) dimethylformamide. After 90 min, absorption was measured at 570 nm in a multiplate reader (Tecan infinite m200, Tecan, Tecan Group Ltd., Crailsheim, Germany).

hOCT2 WT cells = assay: Cytoviability (MTT) assay, hOCT2 WT cells; format: cell-based, human
Method: as §3

hOCT2 Ala270Ser [7] = target: T3, hOCT2 Ala270Ser; assay: Cellular platinum accumulation by ICP-MS, hOCT2 Ala270Ser cells; format: cell-based; conditions: 2 min incubation with 100 µM cisplatin, mean ± SEM
Method: (§4) Intracellular cisplatin concentrations were determined using inductively coupled plasma mass spectrometry (ICP-MS), which provides information on the elemental concentration in samples [27, 28], as described before. To do this, cells were grown for five days on 6-well plates and incubated at 37 °C for 2 min with 2 mL of 100 µM cisplatin freshly prepared in a ringer-like solution. After incubation, cells were rapidly washed with ice-cold PBS and then hypotonically lysed using distilled water and sonication for 15 min. For the ICP-MS analysis, 100 µL of cell lysates together with 100 µL of rhodium standard (Rh 1000 µg/mL, Scpscience, Marktoberdorf, Germany) were mixed with 9.8 mL 2% HNO3. Standard platinum for ICP (Merck) was diluted in 2% HNO3, and linear regression was performed (r² = 0.998 and 0.999). Samples were analyzed using ICP-MS iCap QC, autosampler AccelaAS (Thermo Fisher Scientific, Bremen, Germany) and Qtegra ISDS software (Thermo Fisher Scientific). The protein content of lysed cells was determined by absorption measurements using PicoDrop Pico 1000 (PicoDrop, Saffron Walden, UK).

hOCT2 WT [8] = target: T1, hOCT2 WT; assay: Cellular platinum accumulation by ICP-MS, hOCT2 WT cells; format: cell-based; conditions: 2 min incubation with 100 µM cisplatin, mean ± SEM
Method: as §4

[9] = system: hOCT2 WT-mediated ASP^+ uptake; assay: Rapid regulation of ASP+ uptake, hOCT2 WT cells; format: cell-based, human; conditions: 1 µM ASP^+, compared to control
Method: (§5) Moreover, since it is known that the activity of hOCT2 can be regulated by several kinases, the effect of the Ala270Ser substitution on regulation by calmodulin and p56^lck tyrosine kinase of hOCT2 was investigated. The regulation by these two pathways is conserved along all the OCTs. To study the rapid regulation of hOCT2, cells were incubated for 10 min at 37 °C with calmidazolium (5 µM), a potent specific inhibitor of calmodulin [24], with aminogenistein (10 µM), a specific inhibitor of p56^lck tyrosine kinase, or with ringer-like solution as a control. Regulators were dissolved in ethanol (calmidazolium) or DMSO (aminogenistein) at a concentration that had no impact on ASP^+ transport. After incubation, fluorescence measurements were carried out with 1 µM ASP^+.

[10] = system: hOCT2 Ala270Ser-mediated ASP^+ uptake; assay: Rapid regulation of ASP+ uptake, hOCT2 Ala270Ser cells; format: cell-based, human; conditions: 1 µM ASP^+, compared to control
Method: as §5

[11] = 10 min incubation, then 48 hours in fresh medium
[12] = read-out: EC50 (concentration giving 50% of the toxic effect), MTT assay, 10 min incubation, then 48 hours in fresh medium
[13] = 10 min incubation with 10 µM aminogenistein
[14] = 10 min incubation with 5 µM calmidazolium

Row | Structure (SMILES) | IC50 (hOCT2 Ala270Ser [4]) | hOCT2 Ala270Ser logIC50 ± SEM (hOCT2 Ala270Ser [4]; hOCT2 Ala270Ser cells) | IC50 (hOCT2 WT [5]) | hOCT2 WT logIC50 ± SEM (hOCT2 WT [6]) | other results
1 | CN(C)c1ccc(C=Cc2cc[n+](C)cc2)cc1 [ASP^+, 4-(4-(dimethylamino)styryl)-N-methylpyridinium] | – | – | – | – | Km (hOCT2 WT [1]): 4 ± 1 µM; Vmax of ASP^+ uptake (hOCT2 WT [2]): 516 ± 23 arbitrary units/µg protein s^2; Vmax of ASP^+ uptake (hOCT2 Ala270Ser [3]; specific uptake): 484 ± 50 arbitrary units/µg protein s^2; Km (hOCT2 Ala270Ser [3]; specific uptake (minus uptake with 1 mM TPA^+), 37 °C, pH 7.4): 4.9 ± 1.6 µM
2 | CN/C(=N/CCSCc1nc[nH]c1C)NC#N [Cimetidine, cimetidine] | 40 µM | −4.40 ± 0.19 | 23 µM | −4.64 ± 0.12 | –
3 | N.N.[Cl][Pt][Cl] [Cisplatin, cisplatin] | 9 µM | −5.04 ± 0.11 | 16 µM | −4.80 ± 0.10 | logEC50 ± SEM, MTT assay (hOCT2 Ala270Ser cells; [11]): −4.48 ± 0.05; EC50 (hOCT2 Ala270Ser cells; [12]): 33 µM; logEC50 ± SEM, MTT assay (hOCT2 WT cells; [11]): −4.89 ± 0.11; EC50 (hOCT2 WT cells; [12]): 13 µM; Cellular platinum concentration (hOCT2 Ala270Ser [7]): 221 ± 10 µg Pt/g protein; Cellular platinum concentration (hOCT2 WT [8]): 264 ± 10 µg Pt/g protein
4 | CN1CC(=O)NC1=N [Creatinine, creatinine] | 9800 µM | −2.01 ± 0.06 | 18600 µM | −1.73 ± 0.04 | –
5 | NCCc1c[nH]cn1 [Histamine, histamine] | 4000 µM | −2.40 ± 0.07 | 4600 µM | −2.33 ± 0.06 | –
6 | CN(C)CCCN1c2ccccc2CCc2ccccc21 [Imipramine, imipramine] | – | – | – | −2.71 ± 0.06 | –
7 | CN(C)C(=N)N=C(N)N [Metformin, metformin] | 800 µM and 848 µM | −3.07 ± 0.05 | 900 µM and 868 µM | −3.06 ± 0.05 | –
8 | Cc1ncc(C[n+]2csc(CCO)c2C)c(N)n1 [Thiamin, thiamine] | 106 µM | −3.98 ± 0.06 | 87 µM | −4.06 ± 0.05 | –
9 | N[C@@H](Cc1c[nH]c2ccccc12)C(=O)O [Tryptophan, tryptophan] | ~2400 µM | −2.61 ± 0.28 | ~5400 µM | −2.27 ± 0.28 | Inhibition of ASP^+ uptake (in words) (hOCT2 Ala270Ser [4]; hOCT2 Ala270Ser cells): inhibit a small part of the ASP^+ uptake only at very high concentrations; Inhibition of ASP^+ uptake (in words) (hOCT2 WT [6]): inhibit a small part of the ASP^+ uptake only at very high concentrations
10 | Nc1ccc(-c2cc(=O)c3cc(O)ccc3o2)cc1 [aminogenistein] | – | – | – | – | Effect on hOCT2 WT-mediated ASP^+ uptake (inhibition of p56^lck tyrosine kinase) [9, 13]: strong significant inhibition; Effect on hOCT2 Ala270Ser-mediated ASP^+ uptake (inhibition of p56^lck tyrosine kinase) [10, 13]: strong significant inhibition
11 | Clc1ccc(C(c2ccc(Cl)cc2)n2cc[n+](CC(OCc3ccc(Cl)cc3Cl)c3ccc(Cl)cc3Cl)c2)cc1 (stereo not drawn) [calmidazolium] | – | – | – | – | Effect on hOCT2 WT-mediated ASP^+ uptake (inhibition of calmodulin) [9, 14]: strong significant inhibition; Effect on hOCT2 Ala270Ser-mediated ASP^+ uptake (inhibition of calmodulin) [10, 14]: strong significant inhibition
